Measurements reported in article PMC6150172, “Synthesis of Oxadiazole-Thiadiazole Hybrids and Their Anticandidal Activity” (Molecules : A Journal of Synthetic Chemistry and Natural …, 2017).
Values after ≈ are worked out from the molar mass of the structure shown.

Columns and labels:
C. albicans (ATCC 24433) = assay: Antifungal broth microdilution assay (EUCAST EDef 7.1), C. albicans; type: cell-based; settings: for MIC50: Candida albicans, ATCC24433, read-out: Minimum inhibitory concentration (MIC50)
Description: (§1) The anticandidal effect of compounds 6a–6s were screened in accord with the EUCAST definitive (EDef 7.1) method. Ketoconazole was employed as a reference drug. The in vitro growth inhibitory activity of the compounds were tested against C. albicans (ATCC 24433), C. glabrata (ATCC 90030), C. krusei (ATCC 6258) and C. parapsilosis (ATCC 22019). The results were obtained as MIC values and MIC readings were accomplished twice for each chemical agent. After incubating overnight at 37 °C, the fungal strains were sustained in Roswell Park Memorial Institute (RPMI) medium.
(§2) Adjustment of the inoculum density to a 0.5 McFarland turbidity standard was carried out by using a spectrophotometer. The resulting inoculum suspension contained 0.5 × 10^5–2.5 × 10^5 cfu/mL for fungi. The two-fold serial dilutions technique were applied and the test was carried out in Mueller–Hinton broth and RPMI at pH7 and the test was performed for medium at pH7. The last well on the microplates containing only inoculated broth and the last well with no growth of microorganism represent controls and the MIC50 in μg/mL, respectively. DMSO was used as solvent. Further dilutions of the compounds and standard drugs in the RPMI medium were prepared in the required quantities at contcentrations of 800, 400, 200, 100, 50, 25, 12.5, 6.25, 3.125, 1.5625 and 0.78 µg/mL. After a 24 h incubation of the completed plates, resazurin (20 µg/mL) was added into each well in order to observe the fungal growth. […] Each experiment in antifungal assay was performed twice.

C. glabrata (ATCC 90030) = assay: Antifungal broth microdilution assay (EUCAST EDef 7.1), C. glabrata; type: cell-based; settings: for MIC50: Nakaseomyces glabratus, ATCC90030, read-out: Minimum inhibitory concentration (MIC50)
Description: as §1, §2

[1] = test system: C. parapsilosis (ATCC 22019); assay: Antifungal broth microdilution assay (EUCAST EDef 7.1), C. parapsilosis; type: cell-based; settings: C. parapsilopsis; for MIC50: Lodderomyces parapsilosis, ATCC22019, read-out: Minimum inhibitory concentration (MIC50)
Description: as §1, §2

C. krusei (ATCC 6258) = assay: Antifungal broth microdilution assay (EUCAST EDef 7.1), C. krusei; type: cell-based; settings: for MIC50: Pichia kudriavzevii, ATCC6258, read-out: Minimum inhibitory concentration (MIC50)
Description: as §1, §2

[2] = test system: ergosterol biosynthesis in C. krusei; assay: Ergosterol level quantification by LC-MS-MS in C. krusei; type: cell-based; settings: Pichia kudriavzevii, mean ± SD
Description: The ergosterol level was determined using the method described by Breivik and Owades with adjustments according to [2]. C. krusei was inoculated with Sabouraud dextrose broth (Difco) supplemented with compounds 6e, 6k, 6r and the positive control, ketoconazole. The cultures were incubated, and the stationary-phase cells were harvested. After the addition of 25% alcoholic potassium hydroxide solution, cell suspensions were separated and incubated. Sterols were extracted by sterile distilled water and chloroform, and then the extract was injected into the LC-MS-MS system (Shimadzu LCMS 8040, Kyoto, Japan). The ergosterol quantity in the negative control samples was considered as 100%. All concentrations were analysed in quadruplicate, and the results were presented as mean ± standard deviation (SD).

SMILES	MIC50 (C. albicans (ATCC 24433)) [µg/mL]	MIC50 (C. glabrata (ATCC 90030)) [µg/mL]	MIC50 [1] [µg/mL]	melting point [°C]	MIC50 (C. krusei (ATCC 6258)) [µg/mL]	Minimum inhibitory concentration (MIC50) (C. albicans (ATCC 24433)) [µg/mL]	Minimum inhibitory concentration (MIC50) (C. glabrata (ATCC 90030)) [µg/mL]	Minimum inhibitory concentration (MIC50) [1] [µg/mL]	Minimum inhibitory concentration (MIC50) (C. krusei (ATCC 6258)) [µg/mL]	inhibition at 0.78 µg/mL ([2]; 0.78 µg/mL) [%]	inhibition at 1.56 µg/mL ([2]; 1.56 µg/mL) [%]	inhibition at 3.12 µg/mL ([2]; 3.12 µg/mL) [%]
O=C(CSc1nnc(CCSc2nnc(NC3CCCCC3)s2)o1)Nc1nc2ccc(Cl)cc2s1 [Compound 6p, 2-[[5-[2-[[5-(Cyclohexylamino)-1,3,4-thiadiazol-2-yl]thio]ethyl]-1,3,4-oxadiazol-2-yl]thio]-N-(6-chlorobenzothiazol-2-yl)acetamide]	50 (≈ 88 µM)	25 (≈ 44 µM)	50 (≈ 88 µM)	213	25 (≈ 44 µM)	–	–	–	–	–	–	–
O=C(CSc1nnc(CCSc2nnc(NC3CCCCC3)s2)o1)Nc1ccc(Cl)cc1 [Compound 6j, 2-[[5-[2-[[5-(Cyclohexylamino)-1,3,4-thiadiazol-2-yl]thio]ethyl]-1,3,4-oxadiazol-2-yl]thio]-N-(4-chlorophenyl)acetamide]	25 (≈ 48.9 µM)	50 (≈ 97.8 µM)	50 (≈ 97.8 µM)	–	50 (≈ 97.8 µM)	–	–	–	–	–	–	–
COc1ccc(NC(=O)CSc2nnc(CCSc3nnc(NC4CCCCC4)s3)o2)cc1 [Compound 6i, 2-[[5-[2-[[5-(Cyclohexylamino)-1,3,4-thiadiazol-2-yl]thio]ethyl]-1,3,4-oxadiazol-2-yl]thio]-N-(4-methoxyphenyl)acetamide]	25 (≈ 49.3 µM)	100 (≈ 197 µM)	50 (≈ 98.7 µM)	–	100 (≈ 197 µM)	–	–	–	–	–	–	–
COc1ccc2nc(NC(=O)CSc3nnc(CCSc4nnc(NC5CCCCC5)s4)o3)sc2c1 [Compound 6o, 2-[[5-[2-[[5-(Cyclohexylamino)-1,3,4-thiadiazol-2-yl]thio]ethyl]-1,3,4-oxadiazol-2-yl]thio]-N-(6-methoxybenzothiazol-2-yl)acetamide]	100 (≈ 177 µM)	25 (≈ 44.3 µM)	50 (≈ 88.7 µM)	–	25 (≈ 44.3 µM)	–	–	–	–	–	–	–
Cc1ccc(C(=O)CSc2nnc(CCSc3nnc(NC4CCCCC4)s3)o2)cc1 [Compound 6b, 2-[[5-[2-[[5-(Cyclohexylamino)-1,3,4-thiadiazol-2-yl]thio]ethyl]-1,3,4-oxadiazol-2-yl]thio]-1-(4-methylphenyl)ethan-1-one]	50 (≈ 105 µM)	50 (≈ 105 µM)	50 (≈ 105 µM)	136	100 (≈ 210 µM)	–	–	–	–	–	–	–
O=C(CSc1nnc(CCSc2nnc(NC3CCCCC3)s2)o1)c1ccc(Cl)cc1 [Compound 6d, 2-[[5-[2-[[5-(Cyclohexylamino)-1,3,4-thiadiazol-2-yl]thio]ethyl]-1,3,4-oxadiazol-2-yl]thio]-1-(4-chlorophenyl)ethan-1-one]	100 (≈ 202 µM)	25 (≈ 50.4 µM)	50 (≈ 101 µM)	167	50 (≈ 101 µM)	–	–	–	–	–	–	–
O=C(CSc1nnc(CCSc2nnc(NC3CCCCC3)s2)o1)Nc1ccccc1 [Compound 6g, 2-[[5-[2-[[5-(Cyclohexylamino)-1,3,4-thiadiazol-2-yl]thio]ethyl]-1,3,4-oxadiazol-2-yl]thio]-N-phenyl acetamide]	–	–	–	–	–	50 (≈ 105 µM)	50 (≈ 105 µM)	50 (≈ 105 µM)	50 (≈ 105 µM)	–	–	–
O=C(CSc1nnc(CCSc2nnc(NC3CCCCC3)s2)o1)c1ccccc1 [Compound 6a, 2-[[5-[2-[[5-(Cyclohexylamino)-1,3,4-thiadiazol-2-yl]thio]ethyl]-1,3,4-oxadiazol-2-yl]thio]-1-phenylethan-1-one]	25 (≈ 54.2 µM)	50 (≈ 108 µM)	50 (≈ 108 µM)	141	50 (≈ 108 µM)	–	–	–	–	–	–	–
O=C(CSc1nnc(CCSc2nnc(NC3CCCCC3)s2)o1)Nc1nc2ccc(F)cc2s1 [Compound 6s, 2-[[5-[2-[[5-(Cyclohexylamino)-1,3,4-thiadiazol-2-yl]thio]ethyl]-1,3,4-oxadiazol-2-yl]thio]-N-(6-fluorobenzothiazol-2-yl)acetamide]	50 (≈ 90.6 µM)	6.25 (≈ 11.3 µM)	50 (≈ 90.6 µM)	–	50 (≈ 90.6 µM)	–	–	–	–	–	–	–
O=C(CSc1nnc(CCSc2nnc(NC3CCCCC3)s2)o1)Nc1nc2ccccc2s1 [Compound 6m, 2-[[5-[2-[[5-(Cyclohexylamino)-1,3,4-thiadiazol-2-yl]thio]ethyl]-1,3,4-oxadiazol-2-yl]thio]-N-(benzothiazol-2-yl)acetamide]	50 (≈ 93.7 µM)	50 (≈ 93.7 µM)	25 (≈ 46.8 µM)	214	50 (≈ 93.7 µM)	–	–	–	–	–	–	–
Cc1ccc2nc(NC(=O)CSc3nnc(CCSc4nnc(NC5CCCCC5)s4)o3)sc2c1 [Compound 6n, 2-[[5-[2-[[5-(Cyclohexylamino)-1,3,4-thiadiazol-2-yl]thio]ethyl]-1,3,4-oxadiazol-2-yl]thio]-N-(6-methylbenzothiazol-2-yl)acetamide]	100 (≈ 183 µM)	25 (≈ 45.6 µM)	25 (≈ 45.6 µM)	209	50 (≈ 91.3 µM)	–	–	–	–	–	–	–
O=C(CSc1nnc(CCSc2nnc(NC3CCCCC3)s2)o1)c1ccc(F)cc1 [Compound 6f, 2-[[5-[2-[[5-(Cyclohexylamino)-1,3,4-thiadiazol-2-yl]thio]ethyl]-1,3,4-oxadiazol-2-yl]thio]-1-(4-fluorophenyl)ethan-1-one]	50 (≈ 104 µM)	50 (≈ 104 µM)	50 (≈ 104 µM)	131	25 (≈ 52.1 µM)	–	–	–	–	–	–	–
Cc1ccc(NC(=O)CSc2nnc(CCSc3nnc(NC4CCCCC4)s3)o2)cc1 [Compound 6h, 2-[[5-[2-[[5-(Cyclohexylamino)-1,3,4-thiadiazol-2-yl]thio]ethyl]-1,3,4-oxadiazol-2-yl]thio]-N-(4-methylphenyl)acetamide]	25 (≈ 50.9 µM)	100 (≈ 204 µM)	50 (≈ 102 µM)	–	100 (≈ 204 µM)	–	–	–	–	–	–	–
COc1ccc(C(=O)CSc2nnc(CCSc3nnc(NC4CCCCC4)s3)o2)cc1 [Compound 6c, 2-[[5-[2-[[5-(Cyclohexylamino)-1,3,4-thiadiazol-2-yl]thio]ethyl]-1,3,4-oxadiazol-2-yl]thio]-1-(4-methoxyphenyl)ethan-1-one]	100 (≈ 203 µM)	25 (≈ 50.8 µM)	50 (≈ 102 µM)	120	100 (≈ 203 µM)	–	–	–	–	–	–	–
O=C(CSc1nnc(CCSc2nnc(NC3CCCCC3)s2)o1)Nc1ccc(F)cc1 [Compound 6l, 2-[[5-[2-[[5-(Cyclohexylamino)-1,3,4-thiadiazol-2-yl]thio]ethyl]-1,3,4-oxadiazol-2-yl]thio]-N-(4-fluorophenyl)acetamide]	100 (≈ 202 µM)	50 (≈ 101 µM)	25 (≈ 50.5 µM)	–	50 (≈ 101 µM)	–	–	–	–	–	–	–
CC(=O)N1CCN(c2ccc(OCC3COC(Cn4ccnc4)(c4ccc(Cl)cc4Cl)O3)cc2)CC1 (stereo not drawn) [Ketoconazole, reference compound]	0.78 (≈ 1.47 µM)	1.56 (≈ 2.94 µM)	1.56 (≈ 2.94 µM)	–	1.56 (≈ 2.94 µM)	–	–	–	–	61 ± 2.94	73.1 ± 4.16	84.6 ± 3.01
